Results taken from patent publication US10408813B2, “Biosensor for detecting intracellular cyclic adenosine monophosphate (cAMP) and uses thereof” (Academia Sinica, priority 2015, dated 2019).

How the values were obtained:
[1] = biological target: GLP-1R (UniProt P01275+P32301); assay: BRET cAMP response assay in RINm5F cells, GLP-1R-mediated cAMP production; format: cell-based, rat; conditions: for effect on cAMP responses to 200 μM of GLP-1 (7-36) amide: 9 uM OEA or 8.4 uM 2-OG; for effect on dose-response curve for GLP-1 (7-36) amide to stimulate cAMP production: lipid at 9 to 8 uM; for effect on potency of Ex-4 to stimulate cAMP production: lipid up to 27 uM; for effect on dose response curve / potency of GLP-1 (7-36) amide: lipids at concentrations indicated in FIG. 4C-E (ODA 72 uM); for effect on dose response curve of GLP-1 (7-36) amide: OA and LA at 106 and 107 uM, respectively
[2] = biological target: T1, His-tagged GLP-1 (7-36) (Homo sapiens, UniProt P01275); assay: GLP-1 and OEA binding assay (3H-OEA, Cu-NTA resin capture)
T1 construct: purchased LifeTein
Procedure: Specific bound ^3H-OEA was obtained by subtracting the supernatant ^3H-OEA of reaction from supernatant ^3H-OEA of reaction without GLP-1. […] Copper-nitrilotriacetate resin (Cu^++-NTA), 3 uL in 30 uL of DPBS, was added to capture all the His-tagged GLP-1 (up to 60 uM in 80 uL reaction), further incubated with rotation at RT for 30 min. […] Bound ^3H-OEA=[supernatant ^3H-OEA of nonspecific binding]−[supernatant ^3H-OEA of total binding]. […] The bound ^3H-OEA and free ^3H-OEA were separated as described above, and specific binding was calculated; Bound ^3H-OEA=[supernatant ^3H-OEA of nonspecific binding reaction]−[supernatant ^3H-OEA in the total binding reaction]

[3] = test system: RINm5F cells; assay: BRET cAMP response assay, lipids present alone; format: cell-based, rat; conditions: 28 μM for 2-OG
[4] = biological target: T2, GPR119 (Homo sapiens, UniProt Q8TDV5); conditions: literature (34); read-out: reported EC50 to activate GPR119; cited from earlier work
T2 sequence (Q8TDV5 1-335): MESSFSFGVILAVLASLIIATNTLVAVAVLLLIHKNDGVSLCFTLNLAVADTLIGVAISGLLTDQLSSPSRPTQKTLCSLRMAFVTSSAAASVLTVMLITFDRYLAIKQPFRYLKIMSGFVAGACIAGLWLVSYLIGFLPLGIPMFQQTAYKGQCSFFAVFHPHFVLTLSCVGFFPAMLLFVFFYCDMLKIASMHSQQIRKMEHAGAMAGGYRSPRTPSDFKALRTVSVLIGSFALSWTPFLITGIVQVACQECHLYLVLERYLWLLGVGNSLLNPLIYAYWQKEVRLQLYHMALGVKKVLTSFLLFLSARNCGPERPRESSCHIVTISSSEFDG

[5] = biological target: RG-cAMP sensor in RINm5F cells (Homo sapiens, UniProt O95398, F824A/R193G/T823A); assay: BRET assay with RG-cAMP sensor, titration of membrane-permeable cAMP analog
[6] = test system: adenylyl cyclase; assay: BRET assay with RG-cAMP sensor, adenylyl cyclase activation by forskolin
[7] = biological target: T3, GLP-1R-V2R membrane (Homo sapiens, UniProt P01275+P43220); assay: Receptor binding assay, saturation binding of 125I-GLP-1(7-36)
T3 construct: the first 440 amino acids of the GLP-1R (Met1 to Thr440); expressed in transfected cells; host or cells: U2OS osteosarcoma cells stably co-expressing β-arrestin2:GFP; membrane preparation

[8] = biological target: T4, trypsin (Sus scrofa, UniProt P00761); assay: In vitro assay of trypsin activity in the presence of OEA; format: biochemical; conditions: 92 uM OEA, 0.000125% trypsin
T4 construct: purchased Life Technologies (trypsin-EDTA, inferred); assay kit from BioVision
Procedure: To determine whether OEA affects trypsin activity, we used the Trypsin Activity Colorimetric Test Kit (BioVision, Milpitas, Calif., USA). Briefly, 2 μL substrate was added to a well in 96-well plate containing 48 μL 0.000125% trypsin in the presence or absence of 92 uM OEA. Reactions were conducted at room temperature, and the extent of cleavage was monitored by real-time reading of optical density (OD) at 405 nm

[9] = biological target: T5, GLP-1 (7-36) amide (Homo sapiens, UniProt P01275); assay: Limited trypsin digestion of GLP-1 (7-36) amide, residual activity by cAMP response in RINm5F cells
T5 construct: purchased LifeTein

[10] = biological target: T6, receptors for GIP (Rattus norvegicus, UniProt P43219); assay: BRET cAMP response assay in RINm5F cells, GIP receptor; format: cell-based; conditions: 5 uM antagonist (FIG. 3B)
T6 sequence (P43219 19-455): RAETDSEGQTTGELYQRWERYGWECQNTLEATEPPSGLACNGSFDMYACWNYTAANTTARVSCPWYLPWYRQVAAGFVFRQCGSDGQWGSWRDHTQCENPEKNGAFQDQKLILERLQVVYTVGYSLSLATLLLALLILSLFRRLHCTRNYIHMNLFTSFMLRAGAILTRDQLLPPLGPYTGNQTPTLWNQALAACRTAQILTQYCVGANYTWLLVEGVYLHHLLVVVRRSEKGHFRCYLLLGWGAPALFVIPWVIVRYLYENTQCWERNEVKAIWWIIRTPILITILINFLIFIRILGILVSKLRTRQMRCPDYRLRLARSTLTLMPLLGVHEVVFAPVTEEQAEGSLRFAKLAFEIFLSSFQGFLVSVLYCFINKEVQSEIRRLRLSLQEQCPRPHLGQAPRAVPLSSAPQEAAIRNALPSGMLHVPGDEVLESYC

[11] = biological target: receptors for glucagon (Rattus norvegicus, UniProt P30082); assay: BRET cAMP response assay in RINm5F cells, glucagon receptor; format: cell-based; conditions: 100 uM antagonist (FIG. 3C)
[12] = RINm5F cells stably expressing RG-cAMP sensor

GLP-1R, sequence (P32301 22-463, one chain of several): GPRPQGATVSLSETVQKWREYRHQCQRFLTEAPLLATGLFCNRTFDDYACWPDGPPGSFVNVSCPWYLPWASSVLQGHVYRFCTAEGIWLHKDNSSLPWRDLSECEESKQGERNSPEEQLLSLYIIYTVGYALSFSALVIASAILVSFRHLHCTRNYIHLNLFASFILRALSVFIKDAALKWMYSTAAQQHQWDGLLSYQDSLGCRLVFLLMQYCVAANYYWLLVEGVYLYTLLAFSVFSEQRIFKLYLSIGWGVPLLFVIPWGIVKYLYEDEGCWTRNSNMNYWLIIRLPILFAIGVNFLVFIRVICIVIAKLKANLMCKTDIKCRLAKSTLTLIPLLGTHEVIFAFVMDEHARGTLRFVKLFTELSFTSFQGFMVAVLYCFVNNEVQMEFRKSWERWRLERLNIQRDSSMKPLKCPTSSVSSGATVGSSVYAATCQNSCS
T3 sequence (P43220 with tags, fused parts or gaps limits assumed, one chain of several): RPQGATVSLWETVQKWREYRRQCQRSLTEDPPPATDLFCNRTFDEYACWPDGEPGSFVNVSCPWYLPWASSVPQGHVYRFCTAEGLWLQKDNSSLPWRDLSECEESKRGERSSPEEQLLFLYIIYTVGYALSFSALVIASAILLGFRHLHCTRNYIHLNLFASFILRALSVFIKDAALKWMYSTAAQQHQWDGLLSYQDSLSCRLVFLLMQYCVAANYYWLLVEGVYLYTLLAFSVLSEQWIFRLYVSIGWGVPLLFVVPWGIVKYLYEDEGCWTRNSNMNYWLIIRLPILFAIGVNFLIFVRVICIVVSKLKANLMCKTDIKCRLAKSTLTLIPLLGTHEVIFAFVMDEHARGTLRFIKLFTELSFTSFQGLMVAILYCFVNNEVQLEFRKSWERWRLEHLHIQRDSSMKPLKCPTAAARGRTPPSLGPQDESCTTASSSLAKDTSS
T4 sequence (P00761 9-231): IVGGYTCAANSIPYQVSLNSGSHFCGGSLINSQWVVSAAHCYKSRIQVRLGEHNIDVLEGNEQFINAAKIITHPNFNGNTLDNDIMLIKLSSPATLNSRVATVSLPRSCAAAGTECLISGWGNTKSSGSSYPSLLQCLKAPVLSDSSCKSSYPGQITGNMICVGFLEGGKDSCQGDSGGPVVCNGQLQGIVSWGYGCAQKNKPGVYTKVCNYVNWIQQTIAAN
receptors for glucagon, sequence (P30082 27-485): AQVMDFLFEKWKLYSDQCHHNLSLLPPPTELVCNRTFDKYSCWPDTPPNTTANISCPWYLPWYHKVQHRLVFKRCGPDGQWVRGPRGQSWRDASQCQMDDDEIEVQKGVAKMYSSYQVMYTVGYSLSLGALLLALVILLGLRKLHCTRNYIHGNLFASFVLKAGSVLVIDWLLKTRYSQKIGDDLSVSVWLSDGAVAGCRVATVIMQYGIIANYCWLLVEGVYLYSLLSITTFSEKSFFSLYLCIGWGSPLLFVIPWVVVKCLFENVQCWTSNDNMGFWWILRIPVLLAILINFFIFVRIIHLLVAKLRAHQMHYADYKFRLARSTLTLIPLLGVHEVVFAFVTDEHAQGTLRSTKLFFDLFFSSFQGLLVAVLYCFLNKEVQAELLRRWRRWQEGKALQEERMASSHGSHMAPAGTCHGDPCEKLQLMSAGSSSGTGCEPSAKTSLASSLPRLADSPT

**Q.** For `CCCCCCCC/C=C\CCCCCCCC(=O)OC(CO)CO` [2-OG, 2-oleoylglycerol], which “effect on cAMP responses to 200 μM of GLP-1 (7-36) amide” value [1] is on record?
**A.** The value was “remarkably enhanced”.

**Q.** What about the “effect on dose-response curve for GLP-1 (7-36) amide to stimulate cAMP production” value [1] of the same molecule?
**A.** The value was “markedly left-shifted”.

**Q.** What about the “effect on potency of Ex-4 to stimulate cAMP production” value [1] of the same molecule?
**A.** The value was “unaltered”.

**Q.** And the Ki [2]?
**A.** The Ki was 100 ± 30 nM.

**Q.** What about the “cAMP response to lipid present alone” value [3] of the same molecule?
**A.** The value was “did not elicit cAMP responses”.

**Q.** And the EC50 [4]?
**A.** Its EC50 is 2900 nM.

**Q.** Which results are given for `COC1C2OP(=O)(OCOC(C)=O)OCC2OC1n1c(Br)nc2c(N)ncnc21` (stereo not shown) [8-Br-2-O-Me-cAMP-AM, 8-Br-2′-O-Me-cAMP-AM]?
**A.** concentration at which half maximal reduction of BRET ratio is elicited (EC50) [5, 12]: 2600 nM; BRET ratio reduction ([5]; concentration change from 0.2 μM to 50 μM): 0.45 unit

**Q.** For `CC/C=C\C/C=C\C/C=C\CCCCCCCC(=O)O` [ALA, α-linolenic acid], which “effect on dose response curve / potency of GLP-1 (7-36) amide” value (“effect on dose response curve / potency” for short) [1] is on record?
**A.** The value was “did not show such an effect”.

**Q.** Which “effect on dose response curve of GLP-1 (7-36) amide” value [1] does the source give for `CCCCC/C=C\C/C=C\CCCCCCCC(=O)O` [LA, linoleic acid] here?
**A.** Its value is “consistently but mildly left-shifted”.

**Q.** For `Cl.c1ccc(C2CCCC2NC2=NCCCCCCCCCCC2)cc1` (stereo not shown) [MDL-12,330A], which “effect on forskolin-elicited BRET response” value ([6]; 250 μM inhibitor) is on record?
**A.** Its value is “eliminated”.

**Q.** For `CCCCCCCC/C=C\CCCCCCCC(=O)O` [OA, oleic acid], which “effect on dose response curve of GLP-1 (7-36) amide” value [1] is on record?
**A.** The value was “consistently but mildly left-shifted”.

**Q.** Which “effect on dose response curve / potency” value [1] does the source give for `CCCCCCCC/C=C\CCCCCCCC(=O)NCCc1ccc(O)c(O)c1` [ODA, n-oleoyldopamine] here?
**A.** The value was “did not affect GLP-1 potency”.

**Q.** For `CCCCCCCC/C=C\CCCCCCCC(=O)NCCO` [OEA, oleoylethanolamide], which “effect on cAMP responses to 200 μM of GLP-1 (7-36) amide” value [1] is on record?
**A.** Its value is “remarkably enhanced”.

**Q.** What about the “effect on dose-response curve for GLP-1 (7-36) amide to stimulate cAMP production” value [1] of the same molecule?
**A.** The value was “markedly left-shifted”.

**Q.** What about the “effect on potency of Ex-4 to stimulate cAMP production” value [1] of the same molecule?
**A.** Its value is “unaltered”.

**Q.** And the “Bmax of 125I-GLP-1” value ([7]; in the presence of 9.2 uM OEA)?
**A.** The value was 51±6.5 pmole/mg of membrane.

**Q.** And the “effect on innate trypsin activity” value [8]?
**A.** The value was “does not affect the innate trypsin activity”.

**Q.** And the “factor of reduction of residual activity of GLP-1 (7-36) amide after trypsin digestion” value ([9]; 0.00067% trypsin, OEA increased from 1 uM to 92 uM)?
**A.** Its value is “more than 40”.

**Q.** What about the “factor of reduction of GLP-1 activity after trypsin cleavage” value ([9]; trypsin cleavage in the presence of 92 uM OEA) of the same molecule?
**A.** The value was “more than 300”.

**Q.** What about the “cAMP response to lipid present alone” value [3] of the same molecule?
**A.** Its value is “did not elicit cAMP responses”.

**Q.** What about the EC50 [4] of the same molecule?
**A.** The EC50 was 2900 nM.

**Q.** With `CCCCCCCCCCCCCCCC(=O)NCCO` [PEA, palmitoylethanolamide] as the molecule, how does the “effect on dose response curve / potency” value [1] read?
**A.** The value was “did not affect GLP-1 potency”.

**Q.** Which “effect on dose response curve / potency” value [1] does the source give for `CCCCCCCCCCCCCCCCCC(=O)O` [SA, stearic acid] here?
**A.** The value was “did not show such an effect”.

**Q.** Which “effect on dose response curve / potency” value [1] does the source give for `CCCCCCCCCCCCCCCCCC(=O)NCCO` [SEA, stearoylethanolamide] here?
**A.** Its value is “did not affect GLP-1 potency”.

**Q.** What about the “effect on binding of 3H-OEA to His-tagged GLP-1(7-36)” value ([2]; competition assay) of the same molecule?
**A.** The value was “did not affect the binding”.

**Q.** And the “effect on trypsin digestion of GLP-1 (7-36) amide” value ([9]; 1 uM to 92 uM lipid, 0.00067% trypsin)?
**A.** The value was “did not affect trypsin digestion”.

**Q.** With `[3H]/C(CCCCCCCC)=C(\[3H])CCCCCCCC(=O)NCCO` [^3H-OEA, Oleoyl [9,10-^3H]ethanolamide, reference compound] as the molecule, how does the “concentration of 3H-OEA to achieve half-maximal binding” value ([2]; 0.1 uM His-tagged GLP-1 (7-36), estimated) read?
**A.** The value was 0.28 ± 0.07 µM.

**Q.** What about the “specific binding to GLP-1 receptor” value [7] of the same molecule?
**A.** The value was “not able to observe detectable specific binding”.

**Q.** Which “EC50 for reduction of BRET ratio” value [6, 12] does the source give for `C=C[C@@]1(C)CC(=O)[C@]2(O)[C@@]3(C)[C@@H](O)CCC(C)(C)[C@@H]3[C@H](O)[C@H](OC(C)=O)[C@@]2(C)O1` [forskolin] here?
**A.** The value was 70 nM.

**Q.** And the “BRET ratio reduction, basal cAMP level to maximally stimulated” value ([6]; maximal forskolin stimulation)?
**A.** Its value is 0.3 unit.

**Q.** Which “effect on dose response curve / potency” value [1] does the source give for `CCCCC/C=C\C/C=C\C/C=C\CCCCC(=O)O` [γ-LA, γ-linolenic acid] here?
**A.** The value was “did not show such an effect”.

**Q.** Which “effect of antagonist on cAMP response to GLP-1 (7-36) amide” value ([1]; 500 nM antagonist (FIG. 3A)) does the source give for “Ex-9: GLP-1 receptor antagonist exendin 9 [reference compound]” here?
**A.** The value was “curtailed”.

**Q.** What about the “lipid enhancement and cAMP responses with GLP-1 receptor signaling blocked” value ([1]; 500 nM exendin 9, GLP-1 (7-36) amide with OEA or 2-OG) of the same molecule?
**A.** Its value is “barely detectable”.

**Q.** Which “effect of antagonist on cAMP response to GIP” value [10] does the source give for “GIP(8-42): GIP antagonist, SEQ ID NO: 14 (SDYSIAMDKIHQQDFVNWLLAQKGKKNDWKHNITQ; GIP 8-42)” here?
**A.** Its value is “curtailed”.

**Q.** For “His-tagged GLP-1 (7-36): SEQ ID NO: 6, six consecutive histidine residues tagged to the C-terminal of GLP-1 (7-36) peptide (HAEGTFTSDVSSYLEGQAAKEFIAWLVKGRHHHHHH; His-tagged GLP-1 (7-36)) [reference compound]”, which “concentration of GLP-1 to achieve half-maximal binding of OEA” value ([2]; 0.2 uM 3H-OEA, estimated) is on record?
**A.** Its value is 0.16 ± 0.05 µM.

**Q.** Which “effect of antagonist on cAMP response to glucagon” value [11] does the source give for “[des-His1,Glu9]-glucagon amide: glucagon antagonist” here?
**A.** The value was “curtailed”.
